ChEMBL document CHEMBL1201862, “PubChem BioAssay data set” (2004)
One block for each molecule: values may come before it. Activity calls are given as the source filed them.

Legend:
[1] = inhibitors of clade B AD8 Env fusion, dose response, cell-based, cherry-pick (AID 652062); assay type: functional;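 note: luciferase signal from cell-cell fusion driven by HIV-1 clade B AD8 Env; potency is for inhibitors of fusion seen as a drop in luminescence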
[2] = HepG2 cell cytotoxicity, dose response, cytotoxicity control, cherry-picked samples (AID 1159577); assay type: functional, cell-based
[3] = inhibitors of HIV Env-driven cell fusion, dose response, cherry-pick (AID 652057); assay type: functional, cell-based
[4] = ZM109 Env clade C HIV-1 fusion inhibitors, dose response, HeLa effector, CEM target cells, luciferase, cherry-pick (AID 652058); assay type: functional, cell-based
[5] = P. falciparum Dd2 growth inhibitors, dose response, SYBR Green, cherry-picked samples (AID 1159567); assay type: functional, cell-based
[6] = HCT116 cell viability decrease, GSK3B pretreatment – CellTiter-Glo, IC50, dose response (AID 1117339); assay type: functional; conditions: HCT-116
[7] = SNU-C1 cell viability reduction, dose response, CellTiter-Glo luminescence (AID 1117323); assay type: functional, cell-based
[8] = RKO cell viability reduction, dose response, CellTiter-Glo luminescence (AID 1117322); assay type: functional
[9] = Concentration-dependent survival of SW480 colon cancer line, luminescence detection with CellTiter-Glo, half-maximal inhibitory concentration (AID 1117338); assay type: functional
[10] = cytotoxicity toward HCT116 cells – cell-based, CellTiter-Glo luminescence, IC50, dose response (AID 1117332); assay type: functional; conditions: HCT-116
[11] = cytotoxicity toward HT-29 cells – cell-based, CellTiter-Glo luminescence, IC50, dose response (AID 1117330); assay type: functional
[12] = CellTiter-Glo luminescent dose response of DLD-1 viability loss (AID 1117352); assay type: functional
[13] = cytotoxicity toward Colo320 cells – cell-based, CellTiter-Glo luminescence, IC50, dose response (AID 1117334); assay type: functional; conditions: COLO 320
[14] = IGROV1 ovarian cancer cell cytotoxicity, dose response, PAX8 inhibitor project, plate reader, dry powder samples (AID 743043); assay type: functional, cell-based; conditions: IGROV-1
Paired box protein Pax-8 = Paired box protein Pax-8 (Homo sapiens, UniProt Q06710); test: inhibitors of PAX8-driven TPO luciferase reporter, dose response, RMG-I cells, cherry-pick (AID 687027); assay type: functional, cell-based;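 note: luciferase reporter driven by Pax8 target thyroperoxidase promoter measured by SteadyGlo luminescence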
Chain of Paired box protein Pax-8 (Q06710 whole entry): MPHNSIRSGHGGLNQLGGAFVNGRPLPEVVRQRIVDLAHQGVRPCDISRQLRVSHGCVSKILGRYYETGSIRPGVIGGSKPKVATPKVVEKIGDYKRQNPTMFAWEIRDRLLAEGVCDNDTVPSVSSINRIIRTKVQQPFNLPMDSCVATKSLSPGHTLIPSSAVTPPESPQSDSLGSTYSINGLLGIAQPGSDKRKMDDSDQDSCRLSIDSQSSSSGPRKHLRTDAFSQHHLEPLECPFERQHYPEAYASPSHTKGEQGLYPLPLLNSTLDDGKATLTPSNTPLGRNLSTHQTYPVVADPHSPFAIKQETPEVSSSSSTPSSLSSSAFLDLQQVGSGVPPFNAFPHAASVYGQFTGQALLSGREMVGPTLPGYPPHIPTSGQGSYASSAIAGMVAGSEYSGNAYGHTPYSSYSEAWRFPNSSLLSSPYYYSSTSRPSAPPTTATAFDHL

[15] = NIH:OVCAR-3 ovarian cancer cell cytotoxicity, dose response, PAX8 inhibitor project, plate reader, dry powder samples (AID 743044); assay type: functional, cell-based
[16] = non-specific cell cytotoxicity, dose response, cytotoxicity control for PAX8 inhibitor project, plate reader, dry powder samples (AID 743021); assay type: functional, cell-based
HeLa = test: HeLa cell cytotoxicity, dose response, cytotoxicity control, ATP luminescence, cherry-pick samples (AID 687004); assay type: functional, cell-based; conditions: Homo sapiens
[17] = HepG2 cell cytotoxicity, dose response, cytotoxicity control, plate reader, dry powder samples (AID 1159569); assay type: functional, cell-based;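 note: inhibitor potency with signal falling toward the positive control level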
[18] = P. falciparum Dd2 growth inhibitors, dose response, SYBR Green, dry powder samples (AID 1159566); assay type: functional, cell-based;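 note: potency for growth inhibition with lower SYBR green DNA signal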
[19] = P. falciparum ATP4 D1247Y mutant growth inhibitors, dose response, NITD609-resistant line, SYBR Green, dry powder (AID 1159571); assay type: functional, cell-based;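 note: parasites synchronized at ring stage by sorbitol before testing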
[20] = HEK293T cytotoxicity, dose response, cytotoxicity control for miR-122 modulator project, cell-based, activator set, cherry-pick (AID 720690); assay type: functional;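 note: HEK293T human cells scored for general mammalian cytotoxicity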
[21] = P. falciparum 3D7-ScDHODH growth inhibitors, dose response, SYBR Green, dry powder samples (AID 1159570); assay type: functional, cell-based;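 note: parasite growth measured after 72 hours of compound exposure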
[22] = molecular target: NAD-dependent protein deacylase sirtuin-5, mitochondrial (Homo sapiens, UniProt Q9NXA8); test: SIRT5 deacylase inhibitors, dose response, biochemical, fluorescence imaging, cherry-pick, set 6 (AID 720597)
Chain of NAD-dependent protein deacylase sirtuin-5, mitochondrial (Q9NXA8 whole entry): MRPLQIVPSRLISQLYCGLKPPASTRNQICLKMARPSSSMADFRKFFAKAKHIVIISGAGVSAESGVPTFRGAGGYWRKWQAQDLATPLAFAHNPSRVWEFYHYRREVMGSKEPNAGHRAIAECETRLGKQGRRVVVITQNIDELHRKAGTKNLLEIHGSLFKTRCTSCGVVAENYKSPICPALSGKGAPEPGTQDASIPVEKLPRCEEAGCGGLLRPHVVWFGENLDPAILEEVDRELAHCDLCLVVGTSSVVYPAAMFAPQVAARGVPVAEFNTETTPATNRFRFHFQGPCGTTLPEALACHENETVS

[23] = HEK293 cell cytotoxicity, dose response, cytotoxicity control, cherry-picks, set 5 (AID 1053117); assay type: functional, cell-based
[24] = molecular target: T1, Nuclear receptor subfamily 0 group B member 1 (Homo sapiens, UniProt P51843); assay type: functional, cell-based;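 note: HEK293T cells transfected with SF-1 and DAX-1 plus StAR promoter luciferase reporter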
T1 sequence (P51843 whole entry): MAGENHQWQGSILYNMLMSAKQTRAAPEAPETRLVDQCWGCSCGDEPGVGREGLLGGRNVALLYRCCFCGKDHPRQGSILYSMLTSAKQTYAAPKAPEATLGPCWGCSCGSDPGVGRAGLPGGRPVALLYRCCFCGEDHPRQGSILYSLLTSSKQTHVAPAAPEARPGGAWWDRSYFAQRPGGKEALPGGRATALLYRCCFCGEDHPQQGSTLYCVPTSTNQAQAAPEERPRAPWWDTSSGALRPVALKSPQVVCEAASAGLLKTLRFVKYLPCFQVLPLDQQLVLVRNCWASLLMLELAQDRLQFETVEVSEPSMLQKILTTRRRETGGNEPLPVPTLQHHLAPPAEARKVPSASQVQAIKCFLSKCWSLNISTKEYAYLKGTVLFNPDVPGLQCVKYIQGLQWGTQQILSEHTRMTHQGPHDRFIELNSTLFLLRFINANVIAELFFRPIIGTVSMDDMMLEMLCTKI

cells = assay type: functional, cell-based
[25] = Counterscreen for activators of the function of SWI/SNF related, matrix associated, actin dependent regulator of chromatin, subfamily a, member 2 (SMARCA2, BRM): Luminescence-based cell-based high throughput dose response assay to identify non-selective compounds using the VP16 reporter assay.; assay type: functional
[26] = molecular target: SWI/SNF-related matrix-associated actin-dependent regulator of chromatin subfamily A member 2 (Homo sapiens, UniProt P51531); test: Luminescence-based cell-based high throughput dose response assay to identify activators of the function of SWI/SNF related, matrix associated, actin dependent regulator of chromatin, subfamily a, member 2 (SMARCA2, BRM).; assay type: functional
Chain of SWI/SNF-related matrix-associated actin-dependent regulator of chromatin subfamily A member 2 (P51531 whole entry): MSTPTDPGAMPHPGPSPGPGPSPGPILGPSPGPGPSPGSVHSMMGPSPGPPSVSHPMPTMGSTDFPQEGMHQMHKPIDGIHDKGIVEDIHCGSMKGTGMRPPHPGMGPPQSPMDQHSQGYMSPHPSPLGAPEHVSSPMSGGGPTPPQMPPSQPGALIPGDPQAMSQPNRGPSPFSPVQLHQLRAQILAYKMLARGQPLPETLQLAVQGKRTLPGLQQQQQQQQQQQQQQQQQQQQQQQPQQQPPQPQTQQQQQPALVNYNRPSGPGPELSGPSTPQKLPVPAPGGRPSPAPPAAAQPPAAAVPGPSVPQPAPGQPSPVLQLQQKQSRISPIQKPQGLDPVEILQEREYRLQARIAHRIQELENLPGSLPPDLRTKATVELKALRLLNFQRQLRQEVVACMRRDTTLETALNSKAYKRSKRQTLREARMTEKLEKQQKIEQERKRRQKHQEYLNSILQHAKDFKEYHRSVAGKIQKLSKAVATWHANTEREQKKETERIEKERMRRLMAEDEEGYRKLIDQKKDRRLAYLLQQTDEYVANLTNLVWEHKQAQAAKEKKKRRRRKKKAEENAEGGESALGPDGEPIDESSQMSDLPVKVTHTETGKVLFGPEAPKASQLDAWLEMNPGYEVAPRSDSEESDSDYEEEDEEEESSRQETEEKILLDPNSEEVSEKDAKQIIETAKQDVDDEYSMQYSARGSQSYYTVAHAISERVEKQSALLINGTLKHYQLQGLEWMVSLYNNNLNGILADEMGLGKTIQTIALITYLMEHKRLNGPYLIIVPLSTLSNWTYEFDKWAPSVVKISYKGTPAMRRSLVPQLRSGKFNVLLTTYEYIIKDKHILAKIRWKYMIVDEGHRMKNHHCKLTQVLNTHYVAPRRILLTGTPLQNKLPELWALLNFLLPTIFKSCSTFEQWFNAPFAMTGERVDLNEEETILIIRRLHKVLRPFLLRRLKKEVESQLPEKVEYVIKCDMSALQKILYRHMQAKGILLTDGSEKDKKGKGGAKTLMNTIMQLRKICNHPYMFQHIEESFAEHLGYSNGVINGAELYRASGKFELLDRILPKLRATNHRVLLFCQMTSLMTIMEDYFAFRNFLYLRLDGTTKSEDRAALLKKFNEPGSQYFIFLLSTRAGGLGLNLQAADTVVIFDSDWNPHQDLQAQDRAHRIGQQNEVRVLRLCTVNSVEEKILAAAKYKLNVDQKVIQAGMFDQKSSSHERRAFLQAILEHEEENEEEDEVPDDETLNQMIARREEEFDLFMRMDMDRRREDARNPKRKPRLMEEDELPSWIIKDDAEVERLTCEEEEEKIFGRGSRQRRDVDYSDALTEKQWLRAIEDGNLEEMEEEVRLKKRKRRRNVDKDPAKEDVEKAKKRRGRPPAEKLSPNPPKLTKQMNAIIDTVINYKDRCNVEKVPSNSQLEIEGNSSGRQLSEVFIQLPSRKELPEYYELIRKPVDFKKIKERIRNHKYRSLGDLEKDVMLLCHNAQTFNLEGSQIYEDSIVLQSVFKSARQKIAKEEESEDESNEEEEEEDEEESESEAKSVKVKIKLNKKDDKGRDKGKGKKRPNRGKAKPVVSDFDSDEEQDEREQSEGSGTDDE

Structure (SMILES): C[C@@H]1CN([C@@H](C)CO)C(=O)Cc2cc(NC(=O)Nc3ccc4c(c3)OCO4)ccc2O[C@H]1CN(C)Cc1ccc(Cl)c(Cl)c1
- AC50 [1]: 25 µM (active)
- AC50 [2]: > 39 µM (inactive)
- AC50 [3]: 23.5 µM (active)
- AC50 [4]: 21.8 µM (active)
- AC50 [5]: 5.32 µM (active)

Structure (SMILES): COc1ccc(CN2CCN(C(c3ccc(F)cc3)c3ccc(F)cc3)CC2)c(OC)c1OC
- IC50 [6]: 2.77 µM (active)
- IC50 [7]: 0.443 µM (active)
- IC50 [8]: 3.7 µM (active)
- IC50 [9]: 3.32 µM (active)
- IC50 [10]: 1.7 µM (active)
- IC50 [11]: 2.93 µM (active)
- IC50 [12]: 3.13 µM (active)
- IC50 [13]: 2.82 µM (active)

Structure (SMILES): O=C(Nc1cccc(F)c1)N1CCCCN2[C@H](CO)[C@@H](c3ccc(-c4ccccc4F)cc3)[C@H]2C1
- AC50 [14]: 50.9 µM (active)
- AC50 (Paired box protein Pax-8): 10.2 µM (active)
- AC50 [15]: 21.9 µM (active)
- AC50 [16]: 57.4 µM (active)

Structure (SMILES): C[C@@H]1CN([C@@H](C)CO)C(=O)c2cccc(NS(C)(=O)=O)c2O[C@@H]1CN(C)C(=O)Nc1ccc2c(c1)OCO2
- AC50 (HeLa): 21.1 µM (active)

Structure (SMILES): C[C@H]1CN([C@@H](C)CO)S(=O)(=O)c2ccc(C#Cc3ccccc3F)cc2O[C@@H]1CN(C)C(=O)c1ccc2c(c1)OCO2
- AC50 [17]: 33.7 µM (active)
- AC50 [18]: 1.55 µM (active)
- AC50 [19]: 1.71 µM (active)
- AC50 [20]: 19.5 µM (active)
- AC50 [21]: 2.06 µM (active)
- AC50 [5]: 1.66 µM (active)

- AC50 [22]: > 32 µM (inactive)
Structure (SMILES): CN(C)C(=O)c1cccc(-c2ccccc2[C@H]2[C@@H](C#N)N(C(=O)C3CC3)[C@@H]2CO)c1

- AC50 [22]: > 30 µM (inactive)
Structure (SMILES): CCCC#Cc1ccc2c(c1)O[C@@H](CN(C)C(=O)Nc1ccccc1F)[C@H](C)CN([C@H](C)CO)S2(=O)=O

Structure (SMILES): C[C@H](CO)N1C[C@H](C)[C@H](CN(C)C(=O)c2cccc(F)c2)Oc2ncc(-c3ccccc3)cc2C1=O
- AC50 [23]: > 52 µM (inactive)

Structure (SMILES): COc1ccc(-c2ccc([C@H]3[C@@H]4CN(S(=O)(=O)c5cccc(C)c5)C[C@H]3N4)cc2)cc1
- AC50 [17]: 20.8 µM (active)
- AC50 [2]: > 39 µM (inactive)
- AC50 [18]: 2 µM (active)
- AC50 [19]: 1.86 µM (active)
- AC50 [21]: 1.48 µM (active)
- AC50 [5]: 1.99 µM (active)

Structure (SMILES): COc1ccc(OC)c(-c2nnc3n2N=C(c2ccc(OC)c(OC4CCOC4)c2)CS3)c1 (stereo not drawn)
- IC50 [24]: > 67.5 µM (inactive)
- AC50 (Paired box protein Pax-8): 2.71 µM (active)
- IC50 (cells): > 67.5 µM (inactive)

Structure (SMILES): O=Cc1ccc2noc(-c3ccc(Cl)cc3)c2c1
- EC50 [25]: > 91.2 µM (inactive)
- EC50 [26]: > 91.1 µM (inactive)
